Assay results: article PMC6154534, “New Benzimidazole-1,2,4-Triazole Hybrid Compounds: Synthesis, Anticandidal Activity and Cytotoxicity Evaluation” (Molecules : A Journal of Synthetic Chemistry and Natural …, 2017)
In brackets after ≈: the same amount, converted by molar mass.

How the values were obtained:
Format in all cases: cell-based
[1] = test system: NIH/3T3 mouse embryonic fibroblast cell line (ATCC CRL1658); assay: MTT cytotoxicity assay; conditions: NIH3T3, tested 800 to 0.78 µg/mL, read-out: IC50 on NIH/3T3 mouse embryonic fibroblast cell lines
From the text: Toxicity is a key cause of failure at all steps of the new drug development process. The most part of safety-related problems occur at preclinical phases to predict preclinical safety liabilities earlier in the new drug development process. This approach allows to design and/or selection of better drug candidates that have more potentials to be marketed drugs. […] Cytotoxicities of selected compounds (5m, 5o, 5r, 5w, 5y, 5ab, and 5ad), displaying strong anticandidal activity and good predicted pharmacokinetics, were determined against NIH/3T3 mouse embryonic fibroblast cell lines (ATCC CRL1658).
Cytotoxicity was tested using the NIH/3T3 mouse embryonic fibroblast cell line (ATCC® CRL-1658™, London, UK). NIH/3T3 cells were incubated according to the supplier’s recommendations and they were seeded at 1 × 10^4 cells into each well of 96-well plates. MTT assay was performed as previously described. The compounds were tested in a concentration range of 800 µg/mL and 0.78 µg/mL concentrations. Percent inhibition was calculated for each concentration according to the formula below, and IC50 values were determined by plotting a concentration–response curve of inhibition percent versus compound concentrations tested.

Candida species = assay: Anticandidal broth microdilution, results summarised over all strains; conditions: summary over all four Candida strains
Description: (§1) Synthesized compounds (5a-5ad) were evaluated for anticandidal activity against C. albicans (ATCC 24433), C. krusei (ATCC 6258), C. parapsilosis (ATCC 22019) and C. [NT] 90030). MIC50 values were evaluated via fluorometric measurements, using resazurin solution [56, 57]. […] [NT] 90030). MIC readings were carried out twice for each chemical agent. The yeasts were maintained in RPMI after overnight incubation at 37 °C. The inocula of test microorganisms adjusted to match the turbidity of a MacFarland 0.5 standard tube as determined with a spectrophotometer and the final inoculum size was 0.5-2.5 × 10^5 cfu/mL for antifungal assay. Testing was carried out in RPMI at pH = 7 and the two-fold serial dilutions technique was applied. The last well on the microplates containing only inoculated broth was kept as controls and the last well with no growth of microorganism was recorded to represent the MIC50 expressed in μg/mL. For the antifungal assays, the compounds were dissolved in DMSO. […] The completed plates were incubated for 24 h. At the end of the incubation, resazurin (20 μg/mL) was added into each well to control whether the growth in wells. Then, plates were allowed to incubate for 2 h. MIC50 values were determined using a microplate reader at […].

[2] = test system: C. parapsilosis (ATCC 22019); assay: Anticandidal broth microdilution (EUCAST EDef 7.1), resazurin fluorometric readout; conditions: Lodderomyces parapsilosis, ATCC22019; ATCC 22019, RPMI pH 7, 24 h incubation; read-out: MIC50 C. parapsilopsis
Description: as §1

C. glabrata (ATCC 90030) = assay: as above; conditions: Nakaseomyces glabratus, ATCC90030; ATCC 90030, RPMI pH 7, 24 h incubation
Description: as §1

C. krusei (ATCC 6258) = assay: as above; conditions: Pichia kudriavzevii, ATCC6258; ATCC 6258, RPMI pH 7, 24 h incubation
Description: as §1

C. albicans (ATCC 24433) = assay: as above; conditions: Candida albicans, ATCC24433; ATCC 24433, RPMI pH 7, 24 h incubation
Description: as §1

C. albicans = assay: Fluorescence microscopy (Live/Dead BacLight, SYTO-9 / PI); conditions: 3.12 µg/mL (4 × MIC50), 2 h
From the text: Ergosterol is the major fungal membrane sterol that regulates membrane fluidity, plasma membrane biogenesis and functions. […] It is known that propidium iodide (PI) enters only cells with damaged membranes, while SYTO-9 marks cells with both damaged and unaffected membranes. […] Consequently, fluorescence microscopic experiments supported the findings observed in inhibition of biosynthesis of ergosterol, which is a vital sterol regulating membrane functions. The Live/Dead BacLight viability kit from Molecular Probes, Inc. (Eugene, OR, USA) was used as reported by Nobman et al.. In this assay, the SYTO-9 and PI stains are in competition to bind to fungal nucleic acid. PI enters only cells with damaged membranes, while SYTO-9 marks cells with both damaged and unaffected membranes. A culture of C. albicans was grownup to mid-log phase in 20 mL of SDB. Twenty milliliters of the yeast culture was divided into two equal parts. […] The second culture was incubated under same conditions without a compound. Both cultures were centrifuged at 3000 rpm for 10 min. and then cell pellets were incubated with PI and SYTO9 at 40 °C for 30 min. The stained yeast cultures were observed under a fluorescence microscope (Carl-Zeis, Axio Scope.A1, Göttingen, Germany) using 100× oil-immersion objective.

[3] = test system: ergosterol biosynthesis in C. albicans (ATCC 24433); assay: Quantification of ergosterol level by LC-MS-MS; conditions: 0.78, 1.56 and 3.12 µg/mL, 16 h, negative control = 100%
From the text: The most of therapies, planned to treat fungal infections, target in the ergosterol biosynthesis pathway or its end product, ergosterol, a membrane sterol that is unique to fungi. It is the main sterol, and thus is essential for growth and normal membrane function of fungal cell. Besides serving as a bioregulator of membrane fluidity, asymmetry and integrity, it contributes to proper function of membrane-bound enzymes. […] Total intracellular sterols were extracted as reported by Breivik and Owades. […] Ergosterol standard (Product No. 45480, Sigma-Aldrich, Darmstadt, Germany) was used for quantification of ergosterol in both inhibitor-free (negative control) and inhibitor including samples. Ergosterol quantity in negative control samples was regarded as 100%. All concentrations were analyzed in quadruplicate, and the results were expressed as mean ± standard deviation (SD) (Figure 2).
Total intracellular sterols were extracted as reported by Breivik and Owades with slight modifications. […] The cultures were incubated for 16 h with shaking at 35 °C. […] Ergosterol quantity in negative control samples was regarded as 100%. All concentrations were analyzed in quadruplicate, and the results were expressed as mean ± standard deviation (SD).

MIC50 (Candida species; Candida, read-out: MIC50 against Candida species): 0.78 µg/mL (≈ 1.69 µM) | MIC50 against Candida species (Candida species): 0.78 to 1.56 µg/mL | MIC50 [2]: 0.78 µg/mL (≈ 1.69 µM) | MIC50 (C. glabrata (ATCC 90030)): 0.78 µg/mL (≈ 1.69 µM) | MIC50 (C. krusei (ATCC 6258)): 0.78 µg/mL (≈ 1.69 µM) | MIC50 (C. albicans (ATCC 24433)): 0.78 µg/mL (≈ 1.69 µM)
Compound: Cn1c(SCC(=O)c2ccc(F)cc2)nnc1-c1ccc(-c2nc3ccc(F)cc3[nH]2)cc1 [Compound 5w, 2-((5-(4-(6-Fluoro-1H-benzimidazol-2-yl)phenyl)-4-methyl-4H-1,2,4-triazol-3-yl)thio)-1-(4-fluorophenyl)ethan-1-one]
IC50 [1]: 65.3 ± 2.94 µg/mL (≈ 141 µM) | effect on C. albicans cell membrane (PI penetration) (C. albicans): membrane damaging effect | level of ergosterol in C. albicans (in words) [3]: significantly decreased the level of ergosterol at all tested concentrations
